One may read the MIC as the lowest concentration that inhibits growth of the organism.

≈ marks a conversion by molar mass, not a printed value. Where two headings read alike, the source gives them in different places.

From patent US11761023B2, “Analyzing and using motility kinematics of microorganisms” (PhAST Corp., priority 2017, dated 2023) come the findings set out here.

What all share (assay type): cell-based, Pseudomonas aeruginosa
One experiment relates to P. aeruginosa PA14. In words: Single-cell swimming kinematics (ASK software, phase contrast video microscopy) upon antibiotic exposure. The note with it: for change in swimming speed compared to antibiotic-free control: FIG. 12.
For experiment [1], the system named is clinical isolate P. aeruginosa 9/53. Briefly: MIC by broth microdilution assay. In general terms: Broth dilution looks for growth in wells or tubes with falling amounts of substance.
The test system of experiment [2] is susceptible clinical isolate of P. aeruginosa (PSA 9/53). Briefly: Single-cell swimming speed (ASK software) relative to antibiotic-free control. Particulars: ciprofloxacin 4 μg/ml, meropenem 0.5 μg/ml, gentamicin 8 μg/ml; FIG. 17. The source says: The swimming speed (y axis) was normalized by the speed in the control (which thus becomes the dashed line at 1).

The test system of a further experiment is P. aeruginosa ATCC 27853. Briefly: MIC by broth microdilution assay.

Turning to `CC(C)(O/N=C(\C(=O)N[C@@H]1C(=O)N2C(C(=O)[O-])=C(C[n+]3ccccc3)CS[C@H]12)c1csc(N)n1)C(=O)O` [ceftazidime], the “change in swimming speed compared to antibiotic-free control” value in the experiment with P. aeruginosa PA14 (0.1 μg/ml) is listed as “no significant changes”. For the same molecule, the “decrease of mean swimming speed compared to the antibiotic-free control” value came out at 14% with P. aeruginosa PA14 (1 μg/ml, after 30 min); 23% in the experiment with P. aeruginosa PA14 (1 μg/ml, after 50 min); 33% in the experiment on P. aeruginosa PA14 (1 μg/ml, after 70 min). The “mean swimming speed of exposed cells” value with P. aeruginosa PA14 (1 μg/ml, after 30 min) is 42.6 μm/s; in the experiment on P. aeruginosa PA14 (1 μg/ml, after 50 min) it was 35.4 μm/s; in the experiment with P. aeruginosa PA14 (1 μg/ml, after 70 min), 31.2 μm/s.

Take `C[C@@H](O)[C@H]1C(=O)N2C(C(=O)O)=C(S[C@@H]3CN[C@H](C(=O)N(C)C)C3)[C@H](C)[C@H]12` [meropenem]: in experiment [1] (Pseudomonas aeruginosa, read-out: MIC), the MIC was found to be 0.5 µg/mL (≈ 1.3 µM). In experiment [2], the “sensitivity of motility (swimming speed) to the antibiotic” value was “less so”.

For gentamicin, the results for the “change in swimming speed compared to antibiotic-free control” value with P. aeruginosa PA14 (0.1 μg/ml), with P. aeruginosa PA14 (1 μg/ml) and in the experiment on P. aeruginosa PA14 (10 μg/ml) were “not”, “not” and “significantly reduced”, respectively. The MIC (in experiment [1]; in the experiment with P. aeruginosa ATCC 27853) was 1 µg/mL throughout. For the same molecule, in experiment [2], the “sensitivity of motility (swimming speed) to the antibiotic” value is given as “very sensitive”.
